Laboratory results as given in PubChem BioAssay AID1918942 (Molecular Pharmacology Branch, DTP, NCI, 2023).

Test system: 743489-274-T-PDC complex spheroid viability
Test: Anticancer human tumor 743489-274-T-PDC patient-derived renal cell carcinoma cell line growth inhibition
Details: for IC50: curve of first compound; for viability, T/C: stronger effect = lower value
Procedure, shortened: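 Multicellular complex spheroids of tumor cells with human endothelial cells (HUVEC) and mesenchymal stem cells; the LSD1 inhibitor iadademstat was combined with standard-of-care or investigational agents. Top concentration at or near clinical Cmax, half-log dilutions; final DMSO ≤0.25%.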

[1] = second compound 0.1 µM, first compound 0.00316 µM
[2] = second compound 0.1 µM, first compound 0.01 µM
[3] = second compound 0.1 µM, first compound 0.0316 µM
[4] = second compound 0.1 µM, first compound 0.1 µM
[5] = second compound 0.316 µM, first compound 0.00316 µM
[6] = second compound 0.316 µM, first compound 0.01 µM
[7] = second compound 0.316 µM, first compound 0.0316 µM
[8] = second compound 0.316 µM, first compound 0.1 µM
[9] = second compound 1 µM, first compound 0.00316 µM
[10] = second compound 1 µM, first compound 0.01 µM
[11] = second compound 1 µM, first compound 0.0316 µM
[12] = second compound 1 µM, first compound 0.1 µM
[13] = second compound 3.16 µM, first compound 0.00316 µM
[14] = second compound 3.16 µM, first compound 0.01 µM
[15] = second compound 3.16 µM, first compound 0.0316 µM
[16] = second compound 3.16 µM, first compound 0.1 µM
[17] = second compound 10 µM, first compound 0.00316 µM
[18] = second compound 10 µM, first compound 0.01 µM
[19] = second compound 10 µM, first compound 0.0316 µM
[20] = second compound 10 µM, first compound 0.1 µM
[21] = second compound 0.1 µM, first compound 0.00949 µM
[22] = second compound 0.1 µM, first compound 0.03 µM
[23] = second compound 0.1 µM, first compound 0.0949 µM
[24] = second compound 0.1 µM, first compound 0.3 µM
[25] = second compound 0.1 µM, first compound 0.949 µM
[26] = second compound 0.1 µM, first compound 3 µM
[27] = second compound 0.316 µM, first compound 0.00949 µM
[28] = second compound 0.316 µM, first compound 0.03 µM
[29] = second compound 0.316 µM, first compound 0.0949 µM
[30] = second compound 0.316 µM, first compound 0.3 µM
[31] = second compound 0.316 µM, first compound 0.949 µM
[32] = second compound 0.316 µM, first compound 3 µM
[33] = second compound 1 µM, first compound 0.00949 µM
[34] = second compound 1 µM, first compound 0.03 µM
[35] = second compound 1 µM, first compound 0.0949 µM
[36] = second compound 1 µM, first compound 0.3 µM
[37] = second compound 1 µM, first compound 0.949 µM
[38] = second compound 1 µM, first compound 3 µM
[39] = second compound 3.16 µM, first compound 0.00949 µM
[40] = second compound 3.16 µM, first compound 0.03 µM
[41] = second compound 3.16 µM, first compound 0.0949 µM
[42] = second compound 3.16 µM, first compound 0.3 µM
[43] = second compound 3.16 µM, first compound 0.949 µM
[44] = second compound 3.16 µM, first compound 3 µM
[45] = second compound 10 µM, first compound 0.00949 µM
[46] = second compound 10 µM, first compound 0.03 µM
[47] = second compound 10 µM, first compound 0.0949 µM
[48] = second compound 10 µM, first compound 0.3 µM
[49] = second compound 10 µM, first compound 0.949 µM
[50] = second compound 10 µM, first compound 3 µM
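Note: spheroids exposed to compounds for 7 days before readout.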
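Throughout, for viability, T/C: 100% = DMSO vehicle control wells.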

## COc1cc(Nc2ncc3c(n2)-c2ccc(Cl)cc2C(c2c(F)cccc2OC)=NC3)ccc1C(=O)O + NC1CC1c1ccc(-c2cccc(O)c2)cc1
Second compound 0.1 µM
  IC50: > 1000 nM
Second compound 0.316 µM
  IC50: > 1000 nM
Second compound 1 µM
  IC50: > 1000 nM
Second compound 3.16 µM
  IC50: > 1000 nM
Second compound 10 µM
  IC50: > 1000 nM
[1]
  viability, T/C: 103%
[2]
  viability, T/C: 105%
[3]
  viability, T/C: 82.8%
[4]
  viability, T/C: 72.2%
Second compound 0.1 µM, first compound 0.316 µM
  viability, T/C: 82.4%
Second compound 0.1 µM, first compound 1 µM
  viability, T/C: 81.5%
[5]
  viability, T/C: 97.7%
[6]
  viability, T/C: 100%
[7]
  viability, T/C: 85.4%
[8]
  viability, T/C: 90%
Second compound 0.316 µM, first compound 0.316 µM
  viability, T/C: 81.2%
Second compound 0.316 µM, first compound 1 µM
  viability, T/C: 80.5%
[9]
  viability, T/C: 111%
[10]
  viability, T/C: 91.4%
[11]
  viability, T/C: 84.3%
[12]
  viability, T/C: 74.3%
Second compound 1 µM, first compound 0.316 µM
  viability, T/C: 74%
Second compound 1 µM, first compound 1 µM
  viability, T/C: 82.5%
[13]
  viability, T/C: 92.9%
[14]
  viability, T/C: 85.7%
[15]
  viability, T/C: 89.5%
[16]
  viability, T/C: 77.6%
Second compound 3.16 µM, first compound 0.316 µM
  viability, T/C: 72.8%
Second compound 3.16 µM, first compound 1 µM
  viability, T/C: 79%
[17]
  viability, T/C: 100%
[18]
  viability, T/C: 102%
[19]
  viability, T/C: 85.3%
[20]
  viability, T/C: 83.5%
Second compound 10 µM, first compound 0.316 µM
  viability, T/C: 82.9%
Second compound 10 µM, first compound 1 µM
  viability, T/C: 78.4%

## Cn1ncnc1C1c2n[nH]c(=O)c3cc(F)cc(c23)NC1c1ccc(F)cc1 (stereo not given) + NC1CC1c1ccc(-c2cccc(O)c2)cc1
Second compound 0.1 µM
  IC50: > 100 nM
Second compound 0.316 µM
  IC50: > 100 nM
Second compound 1 µM
  IC50: > 100 nM
Second compound 3.16 µM
  IC50: > 100 nM
Second compound 10 µM
  IC50: > 100 nM
Second compound 0.1 µM, first compound 0.000316 µM
  viability, T/C: 118%
Second compound 0.1 µM, first compound 0.001 µM
  viability, T/C: 100%
[1]
  viability, T/C: 102%
[2]
  viability, T/C: 82.8%
[3]
  viability, T/C: 92.4%
[4]
  viability, T/C: 90.4%
Second compound 0.316 µM, first compound 0.000316 µM
  viability, T/C: 106%
Second compound 0.316 µM, first compound 0.001 µM
  viability, T/C: 106%
[5]
  viability, T/C: 101%
[6]
  viability, T/C: 96.1%
[7]
  viability, T/C: 98.3%
[8]
  viability, T/C: 94.1%
Second compound 1 µM, first compound 0.000316 µM
  viability, T/C: 93.1%
Second compound 1 µM, first compound 0.001 µM
  viability, T/C: 103%
[9]
  viability, T/C: 100%
[10]
  viability, T/C: 93%
[11]
  viability, T/C: 84.6%
[12]
  viability, T/C: 97%
Second compound 3.16 µM, first compound 0.000316 µM
  viability, T/C: 97.9%
Second compound 3.16 µM, first compound 0.001 µM
  viability, T/C: 104%
[13]
  viability, T/C: 97.8%
[14]
  viability, T/C: 99.1%
[15]
  viability, T/C: 87.8%
[16]
  viability, T/C: 96.9%
Second compound 10 µM, first compound 0.000316 µM
  viability, T/C: 93.8%
Second compound 10 µM, first compound 0.001 µM
  viability, T/C: 111%
[17]
  viability, T/C: 97.1%
[18]
  viability, T/C: 105%
[19]
  viability, T/C: 100%
[20]
  viability, T/C: 90.8%

## NS(=O)(=O)OCC1CC(n2ccc3c(NC4CCc5ccccc54)ncnc32)CC1O (stereo not given) + NC1CC1c1ccc(-c2cccc(O)c2)cc1
Second compound 0.1 µM
  IC50: > 3000 nM
Second compound 0.316 µM
  IC50: > 3000 nM
Second compound 1 µM
  IC50: > 3000 nM
Second compound 3.16 µM
  IC50: > 3000 nM
Second compound 10 µM
  IC50: > 3000 nM
[21]
  viability, T/C: 98%
[22]
  viability, T/C: 107%
[23]
  viability, T/C: 127%
[24]
  viability, T/C: 154%
[25]
  viability, T/C: 154%
[26]
  viability, T/C: 134%
[27]
  viability, T/C: 98.3%
[28]
  viability, T/C: 97.4%
[29]
  viability, T/C: 125%
[30]
  viability, T/C: 150%
[31]
  viability, T/C: 134%
[32]
  viability, T/C: 149%
[33]
  viability, T/C: 108%
[34]
  viability, T/C: 111%
[35]
  viability, T/C: 125%
[36]
  viability, T/C: 152%
[37]
  viability, T/C: 168%
[38]
  viability, T/C: 137%
[39]
  viability, T/C: 96.5%
[40]
  viability, T/C: 104%
[41]
  viability, T/C: 122%
[42]
  viability, T/C: 145%
[43]
  viability, T/C: 140%
[44]
  viability, T/C: 130%
[45]
  viability, T/C: 90%
[46]
  viability, T/C: 98.6%
[47]
  viability, T/C: 129%
[48]
  viability, T/C: 153%
[49]
  viability, T/C: 150%
[50]
  viability, T/C: 142%

## O=C(C=Cc1cccc(S(=O)(=O)Nc2ccccc2)c1)NO + NC1CC1c1ccc(-c2cccc(O)c2)cc1
Second compound 0.1 µM
  IC50: 860 nM
Second compound 0.316 µM
  IC50: 1010 nM
Second compound 1 µM
  IC50: 1550 nM
Second compound 3.16 µM
  IC50: 915 nM
Second compound 10 µM
  IC50: 1380 nM
[21]
  viability, T/C: 107%
[22]
  viability, T/C: 98.5%
[23]
  viability, T/C: 93%
[24]
  viability, T/C: 67.8%
[25]
  viability, T/C: 49.7%
[26]
  viability, T/C: 28.5%
[27]
  viability, T/C: 102%
[28]
  viability, T/C: 93.2%
[29]
  viability, T/C: 88%
[30]
  viability, T/C: 64.9%
[31]
  viability, T/C: 53.1%
[32]
  viability, T/C: 34%
[33]
  viability, T/C: 98.7%
[34]
  viability, T/C: 99.3%
[35]
  viability, T/C: 84.2%
[36]
  viability, T/C: 84.1%
[37]
  viability, T/C: 58.8%
[38]
  viability, T/C: 35.9%
[39]
  viability, T/C: 98.5%
[40]
  viability, T/C: 88.1%
[41]
  viability, T/C: 90.8%
[42]
  viability, T/C: 69%
[43]
  viability, T/C: 50.2%
[44]
  viability, T/C: 24.1%
[45]
  viability, T/C: 98.9%
[46]
  viability, T/C: 97%
[47]
  viability, T/C: 87.8%
[48]
  viability, T/C: 81.4%
[49]
  viability, T/C: 56.6%
[50]
  viability, T/C: 33.9%
